From US20140303092A1 (CHIMERIX, INC., priority 2011, published 2014)

What was measured:
AdV = test: In vitro antiviral activity in cell culture, AdV; assay type: cell-based; conditions: unidentified adenovirus
clinical = conditions: human, in vivo
Procedure: The pharmacokinetics of HDP-CDV (oral solution) were investigated in a dose-escalation study in healthy volunteers (Study HDP-CDV-102) in which single doses of up to 2 mg/kg and multiple doses (3 doses, each separated by 6 days) of up to 1 mg/kg were administered.

[1] = set-up: species or system human (healthy subjects); conditions: human, in vivo
Procedure: For this reason, in Study HDP-CDV-201, HDP-CDV was administered to fasted subjects. […] For this reason, in future studies, HDP-CDV may be administered with a food whenever possible.
However, the clinical significance of these findings is currently unknown and anecdotal reports indicate that gastrointestinal symptoms during HDP-CDV therapy may be mitigated by administration of HDP-CDV with food. […] In Study HDP-CDV-301, HDP-CDV is dosed with food; there is no restriction on the amount or type of food eaten. Therefore, evidence of the effectiveness of HDP-CDV is established in Study […] in subjects who receive HDP-CDV in the fed state.

[2] = in vivo
[3] = human, in vivo
Source text: ESRD patients not on dialysis have no ability to eliminate the metabolite CDV. As such, specific labeling for ESRD patients not currently on dialysis may not be sought. Furthermore, such subjects are/may be excluded from future studies with HDP-CDV.

[4] = cynomolgus monkey, in vivo
HHV-6(B) = test: In vitro antiviral activity in cell culture, HHV-6(B); assay type: cell-based, human herpesvirus 6; conditions: Human betaherpesvirus 6, B-cell
VZV = test: In vitro antiviral activity in cell culture, VZV; assay type: cell-based, varicella-zoster virus; conditions: Human alphaherpesvirus 3
CMV = test: In vitro antiviral activity in cell culture, CMV; assay type: cell-based, cytomegalovirus; conditions: dsDNA viruses including CMV and AdV

**Q.** Which results are given for CCCCCCCCCCCCCCCCOCCCOP(=O)(O)COC(CO)Cn1ccc(N)nc1=O (stereo not drawn) [HDP-CDV]?
**A.** EC50 (AdV): 20 nM; Cmax and AUC versus dose (clinical): increased approximately in proportion to dose; accumulation on Day 12 (clinical): negligible accumulation; quantifiable in urine (clinical): not quantifiable in the urine; half-life (clinical; 1 mg/kg): 1620 min; time of Cmax after administration (clinical; po): 2 to 3 h; reduction of peak plasma concentration (Cmax) [1]: 48%; reduction of systemic exposure (AUCinf) [1]: 28%; systemic exposure, tablet lower than oral solution ([1]; po): about 13%; Minor increases in ALT [2]: 2-5 fold; need for dosage adjustment in renal impairment [3]: no adjustment of HDP-CDV dosage is required; ALT change [4]: dose-related increases in ALT which were quickly reversible after cessation of dosing; EC50 (HHV-6(B)): 7 nM; EC50 (VZV): 0.4 nM; higher potency in comparison to cidofovir, ganciclovir and other nucleoside analogs (CMV): 100 to 1000 fold
